19 molecules from patent publication US8030354B2, “Substituted biphenyl GPR40 modulators” (Amgen Inc., priority 2007, dated 2011) can be followed below.

SMILES strings stand for the structures.

GPR40, sequence (O14842 whole entry): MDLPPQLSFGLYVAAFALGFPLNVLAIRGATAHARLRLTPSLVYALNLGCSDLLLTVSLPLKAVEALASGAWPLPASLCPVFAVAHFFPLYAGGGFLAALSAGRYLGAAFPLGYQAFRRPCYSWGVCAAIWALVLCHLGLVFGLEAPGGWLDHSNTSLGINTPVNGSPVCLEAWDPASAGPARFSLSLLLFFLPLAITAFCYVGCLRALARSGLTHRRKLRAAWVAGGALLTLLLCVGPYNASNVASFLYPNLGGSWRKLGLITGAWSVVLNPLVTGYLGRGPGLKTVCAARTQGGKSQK

The assay concerns the target GPR40 (Homo sapiens, UniProt O14842). As to the kind of experiment: Cell-based aequorin assay (CHO cells stably expressing GPR40 and aequorin). On the set-up: expressed in transfected cells; host or cells: CHO cells stably transfected with GPR40 and aequorin. To be noted: activation of human GPR40, CHO cells, 0.01% HSA. As for the experimental part: Briefly, the Aequorin assays were performed on doubly stable CHO cells expressing GPR40 and Aequorin DNA. […] The luminescence was recorded over a period of 20 seconds with a Microlumat luminometer (Berthold). […] The inositol phosphate assay was performed on an A9 cell line stably transfected with GPR40 (A9_GPR40). The cells were incubated with different concentrations of compounds and [^3H] inositol accumulation was measured after 1 hour.
Cell-based aequorin assays were employed to characterize the modulatory activity of compounds on the GPR40 signaling pathway. In an exemplary assay, CHO cells were stably transfected with both GPR40 and Aequorin (Euroscreen). Cells were detached from the tissue culture dish with 2 mL of trypsin (0.25%(w/v)). Trypsinization was halted with 28 mL of Hanks Buffered Salt Solution containing 20 mM Hepes (H/HBSS) and 0.01% fatty acid-free human serum albumin (HSA). Coelantrazine is added to 1 ug/mL, and the cells were incubated for 2 hours at room temperature. Compounds were dissolved in DMSO for preparation of 10 mM stock solutions. Compounds were diluted in H/HBSS containing 0.01% HSA. Serial dilutions of the test compounds were prepared to determine dose response.
Aequorin luminescence measurements were made using an EG&G Berthold 96-well luminometer, and the response was measured over a 20 second interval after cells and compounds were mixed. The maximum relative light units was plotted to determine dose response. The EC50 (effective concentration to reach 50% maximal response) was determined from the dose response plot.
For the molecule `COc1ccc(F)c(-c2ccc(COc3cccc([C@@H](CC(=O)O)C4CC4)c3)cc2CN2CCCCC2)c1` (single isomer, unassigned) [Example 66.64, (3S)-3-Cyclopropyl-3-(3-(((2′-fluoro-5′-(methyloxy)-2-(1-piperidinylmethyl)-1,1′-biphenyl-4-yl)methyl)oxy)phenyl)propanoic acid or (3R)-3-cyclopropyl-3-(3-(((2′-fluoro-5′-(methyloxy)-2-(1-piperidinylmethyl)-1,1′-biphenyl-4-yl)methyl)oxy)phenyl)propanoic acid], the EC50 (usually the concentration at which the effect is half-maximal) was 1000 to 10000 nM. Next, `CCCCOc1ccc(OC)cc1-c1ccc(COc2cccc(CCC(=O)O)c2)cc1C` [Example 4, 3-(3-(((2′-(Butyloxy)-2-methyl-5′-(methyloxy)-1,1′-biphenyl-4-yl)methyl)oxy)phenyl)propanoic acid]: 1000 to 10000 nM.

As for `COc1ccc(F)c(-c2ccc(COc3cccc([C@H](CC(=O)O)C4CC4)c3)cc2C2=CCCC2(C)C)c1` (single isomer, unassigned) [Example 97.1, (3R)-3-Cyclopropyl-3-(3-(((2-(5,5-dimethyl-1-cyclopenten-1-yl)-2′-fluoro-5′-(methyloxy)-1,1′-biphenyl-4-yl)methyl)oxy)phenyl)propanoic acid or (3S)-3-cyclopropyl-3-(3-(((2-(5,5-dimethyl-1-cyclopenten-1-yl)-2′-fluoro-5′-(methyloxy)-1,1′-biphenyl-4-yl)methyl)oxy)phenyl)propanoic acid], the EC50 is 1000 to 10000 nM.

`COc1ccc(F)c(-c2ccc(COc3cccc([C@@H](CC(=O)O)C4CC4)c3)cc2C(C2CC2)N(C)C)c1` (single isomer, unassigned) [Example 66.38, (3S)-3-Cyclopropyl-3-(3-(((2-(cyclopropyl(dimethylamino)methyl)-2′-fluoro-5′-(methyloxy)-1,1′-biphenyl-4-yl)methyl)oxy)phenyl)propanoic acid or (3R)-3-cyclopropyl-3-(3-(((2-(cyclopropyl(dimethylamino)methyl)-2′-fluoro-5′-(methyloxy)-1,1′-biphenyl-4-yl)methyl)oxy)phenyl)propanoic acid] registered an EC50 of 1000 to 10000 nM. Then `COc1ccc(F)c(-c2ccc(COc3cccc(C[C@H](C)C(=O)O)c3)cc2C2=CCCC2(C)C)c1` (single isomer, unassigned) [Example 63.1, (2S)-3-(3-(((2-(5,5-Dimethyl-1-cyclopenten-1-yl)-2′-fluoro-5′-(methyloxy)-1,1′-biphenyl-4-yl)methyl)oxy)phenyl)-2-methylpropanoic acid or (2R)-3-(3-(((2-(5,5-dimethyl-1-cyclopenten-1-yl)-2′-fluoro-5′-(methyloxy)-1,1′-biphenyl-4-yl)methyl)oxy)phenyl)-2-methylpropanoic acid], with 100 to 1000 nM; and `C=CC(C)(C)C(OC)c1cc(COc2cccc(C(CC)CC(=O)O)c2)ccc1-c1cc(OC)ccc1F` (single isomer, unassigned) [Example 78.13], with 1000 to 10000 nM; and `CCC[C@H](CC(=O)O)c1cccc(OCc2ccc(-c3ccc(OC)nc3)c(C(C)(C)C)c2)c1` (single isomer, unassigned) [Example 67.19, (3R)-3-(3-(((3-(1,1-Dimethylethyl)-4-(6-(methyloxy)-3-pyridinyl)phenyl)methyl)oxy)phenyl)hexanoic acid or (3S)-3-(3-(((3-(1,1-dimethylethyl)-4-(6-(methyloxy)-3-pyridinyl)phenyl)methyl)oxy)phenyl)hexanoic acid], with 1000 to 10000 nM.

On to `CCC[C@H](CC(=O)O)c1cccc(OCc2ccc(-c3cc(OC)ccc3F)c(OC3CCCCO3)c2)c1` (single isomer, unassigned) [Example 67.14, (3R)-3-(3-(((2′-Fluoro-5′-(methyloxy)-2-(tetrahydro-2H-pyran-2-yloxy)-1,1′-biphenyl-4-yl)methyl)oxy)phenyl)hexanoic acid or (3S)-3-(3-(((2′-fluoro-5′-(methyloxy)-2-(tetrahydro-2H-pyran-2-yloxy)-1,1′-biphenyl-4-yl)methyl)oxy)phenyl)hexanoic acid], for which the EC50 lay in the range of 100 to 1000 nM. As for `CCC(CC(=O)O)c1cccc(OCc2ccc(-c3cc(OC)ccc3F)c(C3CCCC3(C)C)c2)c1` (single isomer, unassigned) [Example 98.1], the 50% effective concentration (EC50) fell in the range of 100 to 1000 nM. `CCCCOc1cc(COc2cccc(C(CC)CC(=O)O)c2)ccc1-c1cccc(OC)c1` (single isomer, unassigned) [Example 65.2, (3R)-3-(3-(((2-(Butyloxy)-3′-(methyloxy)-1,1′-biphenyl-4-yl)methyl)oxy)phenyl)pentanoic acid or (3S)-3-(3-(((2-(butyloxy)-3′-(methyloxy)-1,1′-biphenyl-4-yl)methyl)oxy)phenyl)pentanoic acid] yielded an EC50 of 100 to 1000 nM. Then `COc1ccc(F)c(-c2ccc(COc3cccc(C(CC(=O)O)CC4CC4)c3)cc2CN2CCCC2)c1` (single isomer, unassigned) [Example 69.46, (3R)-4-Cyclopropyl-3-(3-(((2′-fluoro-5′-(methyloxy)-2-(1-pyrrolidinylmethyl)-1,1′-biphenyl-4-yl)methyl)oxy)phenyl)butanoic acid or (3S)-4-cyclopropyl-3-(3-(((2′-fluoro-5′-(methyloxy)-2-(1-pyrrolidinylmethyl)-1,1′-biphenyl-4-yl)methyl)oxy)phenyl)butanoic acid], with 1000 to 10000 nM; and `CCCCOc1cc(COc2cccc([C@H](C)CC(=O)O)c2)ccc1-c1ccccc1OC` (single isomer, unassigned) [Example 25, (3R)-3-(3-(((2-(Butyloxy)-2′-(methyloxy)-1,1′-biphenyl-4-yl)methyl)oxy)phenyl)butanoic acid or (3S)-3-(3-(((2-(butyloxy)-2′-(methyloxy)-1,1′-biphenyl-4-yl)methyl)oxy)phenyl)butanoic acid], with above 10000 nM; and `COc1ccc(F)c(-c2ccc(COc3cccc(C(CC(=O)O)C4CC4)c3F)cc2C2=CCCC2(C)C)c1` (single isomer, unassigned) [Example 99.1, (3R)-3-Cyclopropyl-3-(3-(((2-(5,5-dimethyl-1-cyclopenten-1-yl)-2′-fluoro-5′-(methyloxy)-1,1′-biphenyl-4-yl)methyl)oxy)-2-fluorophenyl)propanoic acid or (3S)-3-cyclopropyl-3-(3-(((2-(5,5-dimethyl-1-cyclopenten-1-yl)-2′-fluoro-5′-(methyloxy)-1,1′-biphenyl-4-yl)methyl)oxy)-2-fluorophenyl)propanoic acid], with 1000 to 10000 nM. Take `CC[C@H](CC(=O)O)c1cccc(OCc2ccc(-c3cc(OC)ncc3F)c(C3(COC)CCCC3)c2)c1F` (single isomer, unassigned) [Example 77.12, (3R)-3-(3-(4-(5-Fluoro-2-methoxypyridin-4-yl)-3-(1-(methoxymethyl)cyclopentyl)benzyloxy)-2-fluorophenyl)pentanoic acid or (3S)-3-(3-(4-(5-fluoro-2-methoxypyridin-4-yl)-3-(1-(methoxymethyl)cyclopentyl)benzyloxy)-2-fluorophenyl)pentanoic acid]: the EC50 fell in the range of 1000 to 10000 nM.

`CCCCOc1cc(COc2cccc([C@H](C)CC(=O)O)c2)ccc1-c1cc(OCC)ccc1F` (single isomer, unassigned) [Example 23, (3R)-3-(3-(((2-(Butyloxy)-5′-(ethyloxy)-2′-fluoro-1,1′-biphenyl-4-yl)methyl)oxy)phenyl)butanoic acid or (3S)-3-(3-(((2-(butyloxy)-5′-(ethyloxy)-2′-fluoro-1,1′-biphenyl-4-yl)methyl)oxy)phenyl)butanoic acid]: the EC50 lay within 1000 to 10000 nM.

Regarding `CC1(C)CCC[C@@H]1c1cc(COc2cccc([C@@H](CC(=O)O)C3CC3)c2)ccc1-c1cc(OCC(F)(F)F)ccc1F` (single isomer, unassigned) [Example 66.23], the EC50 was in the range of 1000 to 10000 nM. Turning to `COc1ccc(F)c(-c2ccc(COc3cccc([C@@H](CC(=O)O)c4ccon4)c3)cc2C2=CCCC2(C)C)c1` [Example 94.1, (3R)-3-(3-(((2-(5,5-Dimethyl-1-cyclopenten-1-yl)-2′-fluoro-5′-(methyloxy)-1,1′-biphenyl-4-yl)methyl)oxy)phenyl)-3-(3-isoxazolyl)propanoic acid], the EC50 was in the range of 1000 to 10000 nM. Then `CCCCOc1cc(COc2cccc([C@H](CC(=O)O)C3CC3)c2)ccc1-c1cc(OC)ccc1F` (single isomer, unassigned) [Example 11, (3R)-3-(3-(((2-(Butyloxy)-2′-fluoro-5′-(methyloxy)-1,1′-biphenyl-4-yl)methyl)oxy)phenyl)-3-cyclopropylpropanoic acid or (3S)-3-(3-(((2-(butyloxy)-2′-fluoro-5′-(methyloxy)-1,1′-biphenyl-4-yl)methyl)oxy)phenyl)-3-cyclopropylpropanoic acid], with 1000 to 10000 nM; and `C=CC(C)(C)[C@@H](O)c1cc(COc2cccc([C@@H](CC(=O)O)C3CC3)c2)ccc1-c1cc(OC)ccc1F` (single isomer, unassigned) [Example 66.60], with 1000 to 10000 nM.
